# Like-named read-outs stand apart in the source and are kept apart here.
# Experiments:
# Type in all cases: cell-based
# [1] = system: Proteus mirabilis (PMI) isolates; experiment: microbe, parasite or virus in culture; conditions: for MIC ATB in combination: AF1 @ 4 μg/mL; for MIC: Proteus mirabilis, ATB alone, read-out: MIC
# Procedure, shortened: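 First, log-phase suspensions are brought to a final 5·10^5 CFU/mL in cation-adjusted Mueller-Hinton broth. Then plates with compound, antibacterial, or both incubate 16-20 h at 35° C under ambient air. Finally, visual inspection gives the lowest growth-preventing concentration for each agent.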
# [2] = system: Serratia marcescens (SMA) isolates; experiment: MIC of compounds alone and combined with antibacterials, broth microdilution (CLSI); conditions: for MIC: Serratia marcescens
# Protocol: (§1) Method 2: MIC of Compounds Alone and Combined with Antibacterials Against Bacterial Isolates.
# (§2) Compounds of the present invention were assessed against genotyped bacterial strains (Table 3, 4) alone or in combination with an antibacterial (Table 2). […] Log phase bacterial suspensions were adjusted to a final density of 5·10^5 CFU/mL in cation-adjusted Mueller-Hinton broth (ca-MHB; Becton-Dickinson and Company) and added to each well (98 μL). Microplates were incubated for 16-20 h at 35° C. in ambient air. The MIC of the compounds was defined as the lowest concentration of said compounds that prevented bacterial growth as read by visual inspection. The MIC of ATB at each compound concentration was defined as the lowest concentration of ATB that prevented bacterial growth as read by visual inspection.
# [3] = system: Providencia rettgeri (PRE) isolates; experiment: as above; conditions: for MIC: Providencia rettgeri, ATB alone
# Protocol: as §1, §2
# [4] = system: Morganella morganii (MMO) isolates; experiment: as above; conditions: for MIC ATB in combination: AF1 @ 4 μg/mL; for MIC: Morganella morganii, ATB alone
# Protocol: as §1, §2
# [5] = system: Citrobacter freundii (CFR) isolates; experiment: as above; conditions: for MIC: Citrobacter freundii
# Protocol: as §1, §2
structure (smiles),measurement,setting,value
"CO/N=C(\C(=O)N[C@@H]1C(=O)N2C(C(=O)O)=C(COC(N)=O)CS[C@H]12)c1ccco1 [FUR, Cefuroxime]",MIC ATB in combination,[1]; PMI UFR82,4 µg/mL
same,MIC ATB in combination,[1]; PMI UFR120,1 µg/mL
same,MIC ATB in combination,[1]; PMI UFR121,2 µg/mL
same,MIC ATB in combination,[1]; PMI UFR122,1 µg/mL
same,MIC ATB in combination,[1]; PMI UFR123,1 µg/mL
same,MIC ATB in combination,[1]; PMI UFR124,1 µg/mL
same,MIC ATB in combination,[1]; PMI UFR125,1 µg/mL
same,MIC ATB in combination,[1]; PMI UFR126,1 µg/mL
same,MIC ATB in combination,[1]; PMI UFR127,1 µg/mL
same,MIC ATB in combination,[1]; PMI UFR129,4 µg/mL
same,MIC ATB in combination,[1]; PMI UFR130,4 µg/mL
same,MIC ATB in combination,[1]; PMI UFR237,4 µg/mL
same,MIC,[1]; strain PMI UFR82 (CMY-2),16 µg/mL
same,MIC,"[1]; strain PMI UFR120 (TEM-1, SHV-11, CTX-M-14)",> 256 µg/mL
same,MIC,"[1]; strain PMI UFR121 (TEM-1, TEM-52)",> 256 µg/mL
same,MIC,"[1]; strain PMI UFR122 (TEM-1, CTX-M-15)",> 256 µg/mL
same,MIC,[1]; strain PMI UFR123 (CTX-M-1),> 256 µg/mL
same,MIC,[1]; strain PMI UFR124 (CTX-M-2),> 256 µg/mL
same,MIC,[1]; strain PMI UFR125 (CTX-M-71),> 256 µg/mL
same,MIC,"[1]; strain PMI UFR126 (TEM-2, PER-1)",> 256 µg/mL
same,MIC,[1]; strain PMI UFR127 (VEB-1),> 256 µg/mL
same,MIC,"[1]; strain PMI UFR129 (TEM-1, VEB-6)",> 256 µg/mL
same,MIC,[1]; strain PMI UFR130 (CMY-2),8 µg/mL
same,MIC,[1]; strain PMI UFR237 (VEB-6),> 256 µg/mL
same,MIC ATB in combination,"[2]; SMA UFR30, AF1 @ 4 μg/mL",64 µg/mL
same,MIC ATB in combination,"[2]; SMA UFR134, AF1 @ 4 μg/mL",64 µg/mL
same,MIC ATB in combination,"[2]; SMA UFR135, AF1 @ 4 μg/mL",>128 µg/mL
same,MIC ATB in combination,"[2]; SMA UFR136, AF1 @ 4 μg/mL",>128 µg/mL
same,MIC ATB in combination,"[2]; SMA UFR137, AF1 @ 4 μg/mL",32 µg/mL
same,MIC ATB in combination,"[2]; SMA UFR138, AF1 @ 4 μg/mL",64 µg/mL
same,MIC ATB in combination,"[2]; SMA UFR139, AF1 @ 4 μg/mL",64 µg/mL
same,MIC ATB in combination,"[2]; SMA UFR141, AF1 @ 4 μg/mL",128 µg/mL
same,MIC ATB in combination,"[2]; SMA UFR142, AF1 @ 4 μg/mL",64 µg/mL
same,MIC ATB in combination,"[2]; SMA UFR143, AF1 @ 4 μg/mL",32 µg/mL
same,MIC ATB in combination,"[2]; SMA UFR239, AF1 @ 4 μg/mL",>128 µg/mL
same,MIC,[2],> 256 µg/mL
same,MIC,"[2]; ATB alone, strain SMA UFR238 (OXA-48), read-out: MIC",> 256 µg/mL
same,MIC,"[2]; strain SMA UFR30 (OXA-405), ATB alone, read-out: MIC",> 256 µg/mL
same,MIC,"[2]; strain SMA UFR134 (TEM-1, BES-1), ATB alone, read-out: MIC",> 256 µg/mL
same,MIC,"[2]; strain SMA UFR137 (SME-1), ATB alone, read-out: MIC",256 µg/mL
same,MIC,"[2]; strain SMA UFR138 (SME-1), ATB alone, read-out: MIC",256 µg/mL
same,MIC,"[2]; strain SMA UFR139 (SME-2), ATB alone, read-out: MIC",> 256 µg/mL
same,MIC,"[2]; strain SMA UFR141 (OXA-48), ATB alone, read-out: MIC",> 256 µg/mL
same,MIC,"[2]; strain SMA UFR142 (OXA-48), ATB alone, read-out: MIC",> 256 µg/mL
same,MIC,"[2]; strain SMA UFR143 (CTX-M-15, OXA-1, OXA-48), ATB alone, read-out: MIC",> 256 µg/mL
same,MIC,"[2]; strain SMA UFR239 (ESAC), ATB alone, read-out: MIC",256 µg/mL
same,MIC ATB in combination,"[2]; strain SMA UFR238, antibacterial combined with AF1 @ 4 μg/mL",64 µg/mL
same,MIC ATB in combination,"[3]; PRE UFR99, AF1 @ 4 μg/mL",>128 µg/mL
same,MIC,"[3]; strain PRE UFR99 (OXA-1, OXA-181)",> 256 µg/mL
same,MIC,"[3]; strain PRE UFR236 (TEM-1, OXA-48), read-out: MIC",64 µg/mL
same,MIC ATB in combination,"[3]; strain PRE UFR236, antibacterial combined with AF1 @ 4 μg/mL",8 µg/mL
same,MIC ATB in combination,[4]; MMO 200321,128 µg/mL
same,MIC ATB in combination,[4]; MMO UFR144,32 µg/mL
same,MIC ATB in combination,[4]; MMO UFR240,16 µg/mL
same,MIC ATB in combination,[4]; MMO UFR241,32 µg/mL
same,MIC ATB in combination,[4]; MMO UFR242,32 µg/mL
same,MIC ATB in combination,[4]; MMO UFR243,32 µg/mL
same,MIC ATB in combination,[4]; MMO UFR244,16 µg/mL
same,MIC ATB in combination,[4]; MMO UFR245,32 µg/mL
same,MIC ATB in combination,[4]; MMO UFR246,64 µg/mL
same,MIC ATB in combination,[4]; MMO UFR247,16 µg/mL
same,MIC,"[4]; strain MMO 200321 (TEM-1, CTX-M-15, OXA-1)",> 256 µg/mL
same,MIC,"[4]; strain MMO UFR144 (TEM-1, CTX-M-15)",> 256 µg/mL
same,MIC,[4]; strain MMO UFR240 (CTX-M-9),> 256 µg/mL
same,MIC,"[4]; strain MMO UFR241 (TEM-1, CTX-M-15)",> 256 µg/mL
same,MIC,[4]; strain MMO UFR242 (TEM-52),> 256 µg/mL
same,MIC,"[4]; strain MMO UFR243 (DHA-1), read-out: MIC",128 µg/mL
same,MIC,"[4]; strain MMO UFR244 (DHA-1), read-out: MIC",64 µg/mL
same,MIC,"[4]; strain MMO UFR245 (DHA-1), read-out: MIC",128 µg/mL
same,MIC,"[4]; strain MMO UFR246 (DHA-1), read-out: MIC",128 µg/mL
same,MIC,"[4]; strain MMO UFR247 (DHA-1), read-out: MIC",> 256 µg/mL
same,MIC ATB in combination,"[5]; CFR UFR10, AF1 @ 4 μg/mL",8 µg/mL
same,MIC ATB in combination,"[5]; CFR UFR11, AF1 @ 4 μg/mL",>128 µg/mL
same,MIC ATB in combination,"[5]; CFR UFR83, AF1 @ 4 μg/mL",>128 µg/mL
same,MIC ATB in combination,"[5]; CFR UFR146, AF1 @ 4 μg/mL",16 µg/mL
same,MIC ATB in combination,"[5]; CFR UFR248, AF1 @ 4 μg/mL",8 µg/mL
same,MIC ATB in combination,"[5]; CFR UFR249, AF1 @ 4 μg/mL",8 µg/mL
same,MIC ATB in combination,"[5]; CFR UFR250, AF1 @ 4 μg/mL",8 µg/mL
same,MIC,[5],> 256 µg/mL
same,MIC,"[5]; ATB alone, strain CFR UFR253 (TEM-1, SHV-12, OXA-48), read-out: MIC",32 µg/mL
same,MIC,"[5]; ATB alone, strain CFR UFR254 (VEB-1b, OXA-48, qnrA), read-out: MIC",32 µg/mL
same,MIC,"[5]; strain CFR UFR10 (OXA-48), ATB alone, read-out: MIC",> 256 µg/mL
same,MIC,"[5]; strain CFR UFR11 (TEM-1, OXA-1, OXA-48), ATB alone, read-out: MIC",> 256 µg/mL
same,MIC,"[5]; strain CFR UFR83 (TEM-3, AmpC), ATB alone, read-out: MIC",> 256 µg/mL
same,MIC,"[5]; strain CFR UFR248 (CTX-M-15), ATB alone, read-out: MIC",> 256 µg/mL
same,MIC,"[5]; strain CFR UFR249 (TEM-1, CTX-M-15), ATB alone, read-out: MIC",> 256 µg/mL
same,MIC,"[5]; strain CFR UFR250 (TEM-1, SHV-28, CTX-M-15), ATB alone, read-out: MIC",> 256 µg/mL
same,MIC ATB in combination,"[5]; strain CFR UFR253, antibacterial combined with AF1 @ 4 μg/mL",4 µg/mL
same,MIC ATB in combination,"[5]; strain CFR UFR254, antibacterial combined with AF1 @ 4 μg/mL",2 µg/mL
